# Measurements from paper PMC10552892, “Ebselen oxide and derivatives are new allosteric HER2 inhibitors for HER2‐positive cancers” (Molecular Oncology, 2023).
# Tests used:
# [1] = molecular target: T1, HER2 in heterodimers with HER3 (Homo sapiens, UniProt P04626); assay: Ligand-dependent HER2 activation in HBMECs upon HRG stimulation (western blot); assay type: cell-based; settings: 10 μM, 100 ng/ml Heregulin-1β 5 min
# T1 construct: in noncancer cells expressing normal levels of HER2; endogenous in cells; host or cells: HBMEC
# [2] = test system: SKBR3; assay: Soft agar anchorage-independent growth, SKBR3; assay type: cell-based, human; settings: 10 μM
# Protocol: (§1) A bottom layer of 0.8% agarose in DMEM supplemented with 20% FBS and penicillin/streptomycin was added to 24‐well plates before seeding 25.10^3 cells per well in a 0.6% agarose top layer. Cells were treated with a vehicle or with 10 μM ebselen oxide or derivatives. Treatments were renewed 3 times a week. After 6 weeks, colonies were visualized with a phase‐contrast microscope and their number and size were quantified using IMAGEJ software.
# (§2) Fig. 2 Ebselen oxide inhibits HER2 activation, cell proliferation, and anchorage‐independent growth of HER2^+ breast cancer cells. […] Blot and quantification of a representative experiment are shown out of 4 (A), 5 (B), or 2 (C) independent experiments. (D–F) Proliferation curves of HER2‐positive (SKBR3, D or BT474, E) or HER2‐negative (MDA‐MB‐231, F) breast cancer cell lines treated with vehicle or 10 μM ebselen oxide assessed by MTT assay. […] (G–I) Anchorage‐independent growth of SKBR3 (G), BT474 (H), or MDA‐MB‐231 (I) cells treated with vehicle or 10 μM ebselen oxide. […] Scale bars are […].
# [3] = test system: BT474; assay: Soft agar anchorage-independent growth, BT474; assay type: cell-based, human; settings: 10 μM
# Protocol: as §1, §2
# [4] = test system: MDA-MB-231; assay: Soft agar anchorage-independent growth, MDA-MB-231; assay type: cell-based, human; settings: 10 μM
# Protocol: as §1, §2
# [5] = molecular target: T2, HER2 (pY1248) in NCI-N87 (Homo sapiens, UniProt P04626); assay: HER2 activation in NCI-N87 gastric cancer cells, western blot; assay type: cell-based
# T2 construct: host or cells: NCI-N87
# Protocol: (A-C) HER2-positive […] (SKBR3, A; NCI-N87, B; BT474, C) treated or not with Ebselen
# indicated, were analyzed by western blot to evaluate HER2 activation status using antibodies directed
# Proliferation was assessed by Incucyte during 4 days.
# [6] = molecular target: T3, HER2 (pY1248) in SKOV3 (Homo sapiens, UniProt P04626); assay: HER2 activation in SKOV3 ovarian cancer cells, western blot; assay type: cell-based; settings: ebselen oxide 0–10 μM 24 h, AG1478 5 μM
# T3 construct: host or cells: SKOV3
# Protocol: Human bone marrow endothelial cells (HBMECs) kindly provided by Dr. B. Weksler (Weill Medical College of Cornell University, NY) were cultured as described previously. The human breast cancer cell lines [SKBR3 (RRID:CVCL_0033), BT474 (RRID:CVCL_0179), and MDA‐MB‐231 (RRID:CVCL_0062)], the human gastric [NCI‐87 (RRID:CVCL_1603)] and ovarian [SKOV3 (RRID:CVCL_0532)] cancer cell lines were obtained from the American Type Culture Collection (Manassas, VA) and were maintained in DMEM containing 10% FBS. All cell lines were cultured under 5% CO2 at 37 °C. HBMECs were transfected using Amaxa Inc nucleofector system (Kit V and U015 program). […]
# Fig. 3 Ebselen oxide inhibits HER2 activation and HER2‐dependent proliferation in gastric and ovarian HER2^+ cancer cells. (A) HER2‐positive NCI‐87 gastric cancer cells were treated with ebselen oxide (0–20 μM) for 24 h, lysed, and analyzed by western blot using anti‐pY1248‐HER2, HER2, and β‐tubulin antibodies. […] (B) HER2‐positive SKOV3 ovarian cancer cells were treated with ebselen oxide (0–10 μM) for 24 h, lysed, and analyzed by western blot using anti‐pY1248‐HER2, HER2, and ezrin antibodies. […] (C, D) Proliferation curves of NCI‐N87 gastric (C) or SKOV3 ovarian (D) cancer cells treated with vehicle or 7–10 μM ebselen oxide measured by MTT assay. […]
# [7] = test system: SKOV3; assay: Proliferation of SKOV3 cells; assay type: cell-based, human; settings: ebselen oxide 7–10 μM, AG1478 5 μM
# [8] = test system: SKBR3; assay: Incucyte proliferation, single agents and combinations, SKBR3; assay type: cell-based; settings: Homo sapiens, SK-BR-3, 96 h; read-out: Reduction/inhibition of cell proliferation
# Protocol: (A–C) Proliferation curves of HER2‐positive (SKBR3, A; BT474, B; NCI‐N87, C) cancer cell lines treated or not with ebselen oxide (10 μM), lapatinib (10–1000 nM), or combination of these agents, as indicated. Proliferation was assessed overtime by Incucyte during 4 days. Data are mean ± SD (n = 8–12) of a representative experiment out of 4 (A), 3 (B), or 2 (C) independent experiments. […] Proliferation was assessed by Incucyte during 4 days. […] Scale bars are […].
# [9] = molecular target: p95HER2 (Homo sapiens, UniProt P04626); assay: Activation of gD-tagged p95HER2 in HBMECs, western blot; settings: 5–10 μM, 24 h
# Protocol: Cells were washed with cold PBS and lysed in a buffer containing 1% Triton, 50 mM Tris–HCl pH 8.8, 25 mM NaCl, 1 mM EDTA, 1 mM Na3VO4, 1 mM AEBSF, 10 μg·mL^−1 each of aprotinin/leupeptin/pepstatin or lysed in Laemmli buffer. Proteins were separated by SDS/PAGE and transferred to nitrocellulose (Schleicher & Schuell, Keene, NH, USA). Membranes were blocked for 1 h in TBS/0.1% Tween20/3% BSA and probed overnight with indicated antibodies. Peroxidase‐coupled secondary antibodies were used to reveal antibody binding using the ECL substrate (Pierce, Thermo Fisher Scientific, Waltham, MA, USA) and Fusion FX (Vilber Lourmat, Collégien, France) chemoluminescence acquisition system. Quantifications were done with IMAGEJ software (1.53e) (NIH, USA).
# Vector encoding wild‐type glycoprotein D‐tagged form of HER2 (gD‐HER2‐WT) [18] was a kind gift of Dr M. Sliwkowski (Genentech, San Francisco, CA, USA). […] Vector encoding the HER2p95 [19] was provided by Dr J. Baselga.
# (A–C) Lysates were then analyzed by western blot using antibodies against pY1248 HER2 and HER2. Representative blot and data quantification (mean ± SEM) are shown out of 3 (A), 3 (B), or 4 (C) independent experiments. One‐way ANOVA followed by Dunnett's multiple comparison test, *P < 0.05, **P < 0.01, ***P < 0.001.
# [10] = test system: HBMECs overexpressing V842I HER2; assay: Proliferation of HBMECs overexpressing V842I HER2 (Incucyte, MTT)
# Protocol: Cell medium was removed and replaced with fresh culture medium. 3‐(4,5‐dimethylthiazol‐2‐yl)‐2,5‐diphenyltetrazolium bromide (MTT reagent) was added at a final concentration of 1.2 mM for 2–4 h at 37 °C. Produced formazan was solubilized with DMSO and measured by 540 nm absorbance reading.
# 25.10^3 cells/96‐well transfected HBMECs or 9.10^3 cancer cells were seeded and monitored with an Incucyte S3 imaging system (Sartorius, Goettingen, Germany) using 10× objective every 2 h during 5 days. Confluency analyses were performed using the dedicated Incucyte analysis system.
# (D–F) Proliferation was assessed by Incucyte during 5 days. Data are mean ± SEM of a representative experiment out of two independent experiments. Two‐way ANOVA followed by Bonferroni's multiple comparison test, ***P < 0.001, ****P < 0.0001.
# (A-B) HBMECs transfected with empty vector (pRK5) or vectors encoding gD-HER2 WT, the truncated gD-
# Proliferation was assessed by Incucyte during 5 days.
# Representative quantification of the proliferation (B) is shown where data are mean ± sem (n=8-12).
# ANOVA followed byBonferroni’s multiple comparison test, *** P<0.001, **** P<0.0001.
# vehicle, 5-10 µM Ebselen oxide or 5 µM AG1478. Proliferation was assessed by MTT assay during 3 days.
# Data are mean ± sem (n=3). Two-way ANOVA followed by Bonferroni’s multiple comparison test, * P<0.05 **
# T2 sequence (P04626 23-1255): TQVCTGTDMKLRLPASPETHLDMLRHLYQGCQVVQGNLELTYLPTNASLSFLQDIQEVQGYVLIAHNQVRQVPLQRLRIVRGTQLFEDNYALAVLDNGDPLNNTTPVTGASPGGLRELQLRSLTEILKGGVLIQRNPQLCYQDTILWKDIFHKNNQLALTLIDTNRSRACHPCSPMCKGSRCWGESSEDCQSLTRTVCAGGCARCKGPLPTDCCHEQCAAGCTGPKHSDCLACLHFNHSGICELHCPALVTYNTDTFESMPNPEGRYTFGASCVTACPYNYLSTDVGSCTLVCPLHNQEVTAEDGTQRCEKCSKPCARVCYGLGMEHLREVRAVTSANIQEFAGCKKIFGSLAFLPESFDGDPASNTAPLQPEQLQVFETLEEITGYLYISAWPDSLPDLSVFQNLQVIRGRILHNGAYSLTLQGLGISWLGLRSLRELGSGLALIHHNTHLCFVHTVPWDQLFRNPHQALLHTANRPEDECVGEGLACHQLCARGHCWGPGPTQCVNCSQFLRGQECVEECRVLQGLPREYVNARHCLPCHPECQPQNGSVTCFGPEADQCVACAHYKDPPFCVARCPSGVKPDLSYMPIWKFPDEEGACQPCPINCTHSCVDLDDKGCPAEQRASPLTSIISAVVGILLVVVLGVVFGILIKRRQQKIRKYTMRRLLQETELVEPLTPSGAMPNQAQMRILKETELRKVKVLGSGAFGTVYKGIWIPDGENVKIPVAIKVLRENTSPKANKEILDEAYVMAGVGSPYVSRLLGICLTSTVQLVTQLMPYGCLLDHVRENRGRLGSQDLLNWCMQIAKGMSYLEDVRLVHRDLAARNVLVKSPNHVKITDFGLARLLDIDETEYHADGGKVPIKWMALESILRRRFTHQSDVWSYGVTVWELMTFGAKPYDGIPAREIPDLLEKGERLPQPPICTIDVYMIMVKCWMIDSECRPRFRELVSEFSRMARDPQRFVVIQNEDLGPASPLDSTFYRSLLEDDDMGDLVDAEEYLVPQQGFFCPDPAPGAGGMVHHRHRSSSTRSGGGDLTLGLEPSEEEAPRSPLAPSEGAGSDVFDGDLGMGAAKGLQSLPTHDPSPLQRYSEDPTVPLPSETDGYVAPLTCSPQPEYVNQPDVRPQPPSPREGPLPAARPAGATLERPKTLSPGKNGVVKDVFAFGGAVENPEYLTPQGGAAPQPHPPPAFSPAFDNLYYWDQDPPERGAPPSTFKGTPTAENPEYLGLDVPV
# Sequence of p95HER2 (P04626 611-1255 limits assumed): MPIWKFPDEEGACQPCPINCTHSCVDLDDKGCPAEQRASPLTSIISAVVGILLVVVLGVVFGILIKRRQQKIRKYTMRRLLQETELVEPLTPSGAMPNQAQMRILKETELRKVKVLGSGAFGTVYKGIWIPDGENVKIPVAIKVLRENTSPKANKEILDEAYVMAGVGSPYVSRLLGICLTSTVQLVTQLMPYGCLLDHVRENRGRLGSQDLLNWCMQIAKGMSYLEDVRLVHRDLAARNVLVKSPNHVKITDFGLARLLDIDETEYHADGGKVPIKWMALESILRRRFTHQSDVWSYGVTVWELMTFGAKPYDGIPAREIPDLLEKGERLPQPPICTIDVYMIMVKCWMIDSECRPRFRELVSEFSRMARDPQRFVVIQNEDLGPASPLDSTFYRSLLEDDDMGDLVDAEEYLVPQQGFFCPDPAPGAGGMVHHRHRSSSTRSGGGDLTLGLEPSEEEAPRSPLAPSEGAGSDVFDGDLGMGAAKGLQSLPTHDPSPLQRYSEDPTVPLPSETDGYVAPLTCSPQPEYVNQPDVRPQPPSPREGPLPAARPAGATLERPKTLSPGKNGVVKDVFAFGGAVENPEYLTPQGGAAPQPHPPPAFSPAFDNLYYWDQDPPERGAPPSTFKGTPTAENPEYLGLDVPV
# T1 sequence (P04626 23-1255, one chain of several): as the sequence (P04626 23-1255) above
# T3 sequence (P04626 23-1255): as above
structure (smiles),measurement,setting,value
"O=C1c2ccccc2[Se](=O)N1c1ccccc1 (stereo not drawn) [Ebselen oxide, ebselen oxide]",Physiological activation of HER2 in heterodimers and downstream AKT and ERK activation upon HRG,[1],did not alter
same,Reduction in the size of micro-colonies,[2],more than 40%
same,Reduction in the size of micro-colonies,[3],> 50%
same,Effect on development of micro-colonies,[4],no impact
same,Effect on HER2 activation,"[5]; ebselen oxide 0–20 μM 24 h, AG1478 5 μM",strongly blocked
same,"Effect on HER2 activation, single agents and combination","[5]; ebselen oxide 10 μM, lapatinib 10 nM",partially decreased
same,Effect on HER2 activation,[6],strongly blocked
same,Effect on proliferation,[7],reduced proliferation
same,inhibition at 10 µM,[8],64%
same,Inhibition of p95HER2 activation,[9],strongly inhibited
same,Inhibition of cell proliferation induced by overexpression of V842I HER2,"[10]; 5 μM, Incucyte 5 days",almost totally inhibited
same,Inhibition of proliferation compared with AG1478 (5 μM),"[10]; MTT 3 days, V842I",similar
